Values after ≈ are worked out from the molar mass of the structure shown. Values joined by “and” are separate entries in the source; they are usually repeats but may differ in a detail not shown here. Equal entries are not always repeated. “Also recorded” adds a separate entry of the source. Where two headings read alike, the source gives them in different places. One block for each molecule: values may come before it.
How the values were obtained:
[1] = cited from earlier work; for Rate of adsorption onto solid Al(OH)3: quinolones 50 µM
[2] = cited from earlier work
[3] = cited from earlier work; remark: listed apart in the source
[4] = cited from earlier work; remark: listed apart in the source
[5] = 2% mucosal homogenate, 1 min incubation; cited from earlier work
[6] = 2% liver homogenates, 1 min incubation; cited from earlier work
[7] = 10% plasma, 1 min incubation; cited from earlier work
[8] = Partition coefficient, chloroform/0.1 M Tris-HCl buffer (pH 6.5); assay type: physicochemical
Protocol: Briefly, chloroform and 0.1 M Tris-HCl buffer (pH 6.5) were mutually saturated before experiments. […] Four milliliters of each drug solution were added to 4 mL of chloroform, and the mixture was vigorously shaken for 30 min at 25 °C. After centrifugation at 3000 rpm for 10 min, the concentration of the compound in both phases was determined by HPLC.

[9] = Solubility in pH 2 buffer and 0.1 M Tris-HCl buffer (pH 6.5); assay type: physicochemical; details: thermodynamic from solid, 25 °C
Protocol: The mixture was centrifuged at 3000 rpm for 10 min, and the supernatant was filtered through a syringe filter with 0.22 μm of pore size (Millipore, Tokyo, Japan), and the concentrations of the compound in the filtrate were measured by HPLC.

[10] = Chelation with Al3+ ion in vitro (precipitation with AlCl3); assay type: physicochemical; details: for Precipitation (%): drug 50 μM, pH 6.5, 30 min, 24 °C
Protocol: AlCl3 was also dissolved in the same buffer at a concentration of 50 μM, 100 μM, 200 μM, 1 mM, or 2 mM, and each drug solution and AlCl3 solution were mixed at an equal volume. The mixture solution was shaken, stood for 30 min at 24 °C and centrifuged. The supernatant was filtrated through a syringe filter with 0.22 μm of pore size (Millipore, Tokyo, Japan).

[11] = Chemical stability in phosphate buffer solutions; assay type: physicochemical; details: 37 °C
Protocol: (§1) Briefly, to examine the chemical stability of CFX-EHE, pH 6.5 and pH 7.4 phosphate buffer solutions (PBS) were used. Enzymatic stability of CFX-EHE (the initial concentration was 0.1 mM) was determined at 1, 5, and 15 min after the start of incubation at 37 °C using the following specimen: rat 10% plasma obtained from male Sprague Dawley (SD) rats, rat 2% small intestinal mucosal homogenates, and rat 2% liver homogenates in the same manner as described previously. […].

[12] = Enzymatic stability in rat 2% small intestinal mucosal homogenates; assay type: in vitro ADME; details: rat 2% mucosal homogenate, 37 °C
Protocol: as §1

[13] = Enzymatic stability in rat 2% liver homogenates; assay type: in vitro ADME; details: 37 °C
Protocol: as §1

[14] = Enzymatic stability in rat 10% plasma; assay type: in vitro ADME; details: 37 °C
Protocol: as §1

S. aureus ATCC29213 = test: MIC, agar plate dilution method; assay type: cell-based, Staphylococcus (S.) aureus
Protocol: The bacterial numbers of S. aureus, E. coli, and P. aeruginosa were adjusted to McFarland 0.5 ([…]) with the sterilized isotonic NaCl solution. These bacterial solutions were inoculated in Mueller–Hinton broth containing CFX or CFX-EHE. Facultative anaerobic and aerobic bacteria were cultured under the aerobic condition at 37 °C for 20 h.

E. coli ATCC25922 = test: MIC, agar plate dilution method; assay type: cell-based, Escherichia (E.) coli
Protocol: The bacterial numbers of S. aureus, E. coli, and P. aeruginosa were adjusted to McFarland 0.5 ([…]) with the sterilized isotonic NaCl solution. […] Facultative anaerobic and aerobic bacteria were cultured under the aerobic condition at 37 °C for 20 h.

P. aeruginosa ATCC27853 = test: MIC, agar plate dilution method; assay type: cell-based, Pseudomonas (P.) aeruginosa
[15] = control rabbits
[16] = individual rabbits
Text: Rabbits were supplied solid food for rabbits (CR-3M, CLEA Japan, Inc., Tokyo, Japan), and the average amount of CR-3M that each rabbit ingested was 100–110 g/day. CR-3M contains various vitamins and cationic metals including Ca, Mg, and iron (Fe^2+, Fe^3+) in addition to various energy sources. […] Coprophagy was not prevented in control rabbits.
To estimate gastric contents, gastric Ca and Mg concentrations, and gastric pH in the untreated control (not fasted), control (fasted) and EDTA-treated rabbits, rabbits were sacrificed by intraperitoneal injection of an excess amount of pentobarbital. Rabbits were opened along the midline and their stomach was isolated. The stomach contents were taken out into a test tube and weighed, and the suspension was centrifuged at 3000 rpm for 10 min to measure the amount of gastric water. Then, concentrations of the Ca and Mg in the supernatant were measured by using L type Wako Ca (Fujifilm, Tokyo, Japan) and L type Wako Mg N (Fujifilm, Tokyo, Japan), respectively, and an automated clinical chemistry analyzer, TBA-nx360 (Canon, Tokyo, Japan). The pH of gastric water was also determined.

[17] = Mucosal damage after EDTA treatment: oral absorption of FD-4; details: >10 mL of 1 mg/mL EDTA 2Na orally, rabbits
Protocol: FD-4 was administered orally by stomach intubation at 10 mg/kg and 10 mL water. Blood (100 μL each) was taken periodically at 0, 0.5, 1, 2, and 4 h after administration from the ear vein. […] The concentrations of FD-4 in plasma were determined by Spectro fluorophotometer RF-1500 (Shimadzu Co., Ltd., Kyoto, Japan) using an excitation and emission wavelength of 480 nm and 520 nm, respectively.

[18] = rats; cited from earlier work
[19] = sheep, dose of 2 mg/kg; cited from earlier work
[20] = mixed-breed dogs, dose of 5 mg/kg; cited from earlier work
[21] = cited from earlier work; remark: listed apart in the source
[22] = rats; cited from earlier work; remark: listed apart in the source
[23] = gastric water, EDTA-treated rabbits

Structure (SMILES): CC1COc2c(N3CCN(C)CC3)c(F)cc3c(=O)c(C(=O)O)cn1c23 (centres unmarked) [OFX, ofloxacin]
- Elution rate of adsorbed quinolones with water [1]: 20.9%
- Rate of adsorption onto solid Al(OH)3 [1]: 47.2%

Structure (SMILES): CCOC(=O)OC(C)OC(=O)c1cn2c3c(c(N4CCN(C)CC4)c(F)cc3c1=O)OC[C@@H]2C (some centres unmarked) [LFX-EHE, levofloxacin-ethoxycarbonyl 1-ethyl hemiacetal ester]
- PC [2]: 75.2
- PC (lipophilicity) of LFX-EHE relative to LFX [2]: 13 fold
- Solubility at pH 2.0 [3]: 16.54 mg/mL
- Precipitation in the presence of AlCl3 ([4]; 1 mM of AlCl3 (drug: AlCl3 = 1:20)): not precipitated
- Average hydrolysis % [5]: 17.4%
- Average hydrolysis % [6]: 17.7%
- Average hydrolysis % [7]: 8.2%

- log PC ([8]; chloroform/0.1 M Tris-HCl buffer (pH 6.5), 25 °C): 0.79
- PC (partition coefficient) ([8]; chloroform/0.1 M Tris-HCl buffer (pH 6.5), 25 °C, mean of 3): 6.12
- Apparent PC of CFX-EHE relative to CFX ([8]; chloroform/pH 6.5 buffer): 13 fold
- solubility at 30 min ([9]; aqueous buffer, 0.1 M Tris-HCl buffer (pH 6.5), read-out: Solubility pH 6.5): 3080 µg/mL (≈ 6880 µM)
- solubility at 30 min ([9]; pH 2 buffer adjusted with hydrochloric acid, pH 2, aqueous buffer, read-out: Solubility pH 2.0): 4280 µg/mL (≈ 9570 µM)
- Precipitation (%) ([10]; AlCl3 25 μM): 0%
- Precipitation (%) ([10]; AlCl3 50 μM): 0%
- Precipitation (%) ([10]; AlCl3 100 μM): 0%
- Precipitation (%) ([10]; AlCl3 500 μM): 0%
- Hydrolysis (%) ([11]; 0.1 M PBS (pH 6.5), 1 min): 0%
- Hydrolysis (%) ([11]; 0.1 M PBS (pH 6.5), 5 min): 0%
- Hydrolysis (%) ([11]; 0.1 M PBS (pH 6.5), 15 min): 0%
- Hydrolysis (%) ([11]; 0.1 M PBS (pH 7.4), 1 min): 0%
- Hydrolysis (%) ([11]; 0.1 M PBS (pH 7.4), 5 min): 0%
- Hydrolysis (%) ([11]; 0.1 M PBS (pH 7.4), 15 min): 0%
- Hydrolysis (%) ([12]; 1 min): 20.4 ± 2.7%
- Hydrolysis (%) ([12]; 5 min): 59.0 ± 9.2%
- Hydrolysis (%) ([12]; 15 min): 85.9 ± 11.5%
- Hydrolysis (%) ([13]; 1 min): 38.4 ± 15.8%
- Hydrolysis (%) ([13]; 5 min): 69.5 ± 9.5%
- Hydrolysis (%) ([13]; 15 min): 94.8 ± 3.4%
- Hydrolysis (%) ([14]; 1 min): 9.5 ± 9.0%
- Hydrolysis (%) ([14]; 5 min): 27.2 ± 1.0%
- Hydrolysis (%) ([14]; 15 min): 71.1 ± 17.4%
- MIC of CFX-EHE relative to CFX (S. aureus ATCC29213; S. aureus): more than 10 times
- MIC (S. aureus ATCC29213; Staphylococcus aureus, S. aureus ATCC29213, 37 °C, 20 h): 4 µg/mL (≈ 8.94 µM)
- MIC of CFX-EHE relative to CFX (E. coli ATCC25922; E. coli): more than 10 times
- MIC (E. coli ATCC25922; Escherichia coli, E. coli ATCC25922, 37 °C, 20 h): 0.5 µg/mL (≈ 1.12 µM)
- MIC of CFX-EHE relative to CFX (P. aeruginosa ATCC27853; P. aeruginosa): more than 10 times
- MIC (P. aeruginosa ATCC27853; Pseudomonas aeruginosa, P. aeruginosa ATCC27853, 37 °C, 20 h): 8 µg/mL (≈ 17.9 µM)
Structure (SMILES): CCOC(=O)OC(C)OC(=O)c1cn(C2CC2)c2cc(N3CCNCC3)c(F)cc2c1=O (centres unmarked) [CFX-EHE]

- Precipitation (%) ([10]; AlCl3 25 μM): 20.4 ± 17.6%
- Precipitation (%) ([10]; AlCl3 50 μM): 22.9 ± 16.7%
- Precipitation (%) ([10]; AlCl3 100 μM): 39.2 ± 17.7%
- Precipitation (%) ([10]; AlCl3 500 μM): 55.5 ± 18.0%
- Precipitation (%) ([10]; AlCl3 1 mM): 73.4 ± 2.0%
Structure (SMILES): O=C(O)c1cn(C2CC2)c2cc(N3CCNCC3)c(F)cc2c1=O [CFX, ciprofloxacin]
- β ([15]; […] iv infusion, LFX 20, CFX 30, TC 10 mg/kg): 0.34 ± 0.04 h⁻¹

Structure (SMILES): CCn1cc(C(=O)O)c(=O)c2cc(F)c(N3CCNCC3)nc21 [ENX, enoxacin]
- Elution rate of adsorbed quinolones with water [1]: 18.3%
- Rate of adsorption onto solid Al(OH)3 [1]: 61.0%

Structure (SMILES): O=C([O-])CN(CCN(CC(=O)O)CC(=O)O)CC(=O)[O-].[Na+].[Na+] [EDTA 2Na, disodium ethylenediamine tetraacetic acid]
- Effect of added EDTA 2Na on precipitation of CFX with AlCl3 ([10]; EDTA 2Na 4 mg/mL, 12 mM added to mixture solutions of CFX and AlCl3): completely inhibited
- Gastric Contents (g) ([16]; EDTA-treated rabbits (free access to 1 mg/mL EDTA 2Na, 10 mL at 1 h before; coprophagy prevented)): (3) 13.1 (hair > pellets) g; also recorded: (1) 9.5 (hair > pellets) g; also recorded: (2) 7.8 (hair > pellets) g
- Gastric pH ([16]; EDTA-treated rabbits): 1.3 and 1.6 and 1.2
- Water Contents ([16]; EDTA-treated rabbits): 10.5 mL and 6.7 mL and 4.8 mL
- Concentrations Ca [16, 23]: 1.9 mg/dL and 2.6 mg/dL and 1.3 mg/dL
- Concentrations Mg [16, 23]: 1.9 mg/dL and 1.6 mg/dL
- Mucosal damage after EDTA treatment [17]: without causing mucosal damage
- Lowest effective dose to increase the permeability of dichloromethylene bisphosphonate [18]: 100 mg/kg
- Minimal effective dose to increase membrane permeability to 4-amino-1-hydroxybutylidene-1,1-bisphosphonate [18]: 10 mg/kg

- Total plasma clearance (CLtotal), Doseiv/AUC0–∞ ([15]; iv infusion): 823 mL/h/kg
Structure (SMILES): C[C@H]1COc2c(N3CCN(C)CC3)c(F)cc3c(=O)c(C(=O)O)cn1c23 [LFX, levofloxacin]
- PC [2]: 5.6
- Precipitation percentage ([4]; 50 μM of AlCl3, same in vitro conditions): 12.4%
- Absolute oral bioavailability [19]: 114 ± 27.7%
- Absolute oral bioavailability [20]: 71.93 ± 9.75%
- Elution rate of adsorbed quinolones with water [1]: 17.9%
- Rate of adsorption onto solid Al(OH)3 [1]: 48.1%
- Oral bioavailabilities in humans ([21]; LFX 200–750 mg, CFX 200–1000 mg, TC 250 mg, ref references listed in the discussion section): 70–100% (200–750 mg)
- Fecal recovery, % of an intravenous dose ([21]; human, in vivo, iv): approximately 15%
- Oral bioavailability ([21]; human, in vivo, po, 200 mg): 69 ± 7%
- Oral bioavailability ([21]; human, in vivo, po, 250 mg): 79 ± 47%
- Oral bioavailability ([21]; human, in vivo, po, 500 mg): 82 ± 13%
- Oral bioavailability ([21]; human, in vivo, po): approximately 70%
- Oral bioavailability ([21]; humans, review article): approximately 100%
- Dose absorbed as the intact form from the intestinal tract into the portal system [22]: approximately 90%

— paper PMC10301896 (Pharmaceutics, 2023)
